Source: patent US20250346597A1, “CONDENSED HETEROCYCLIC COMPOUNDS AS INHIBITOR OF DIACYLGLYCEROL KINASES” (BEONE MEDICINES I GMBH, priority 2023, published 2025)

How the values were obtained:
DGKζ = DGKζ (Homo sapiens (Human), UniProt Q13574); assay: Biochemical DGK IC50 assay (ADP-Glo, lipid micelle substrate), DGKζ; settings: full length DGKζ 0.5 nM, ATP 140 μM, DAG 80 μM
Protocol: (§1) Enzymatic reactions of DGKζ, DGKα and DGKδ were performed using ADP-Glo assay with lipid micelle substrate. […] Full length DGKα (D21-10BG, SignalChem) and full length DGKδ (D23-10G, SignalChem) were purchased. Lipid micelle was prepared by dissolving DAG (Sigma, 317505-10MG) and PS (Sigma, P7769-100MG) with chloroform which was furtherly removed by rotary evaporation. The resulted product was resuspended in buffer containing 25 mM HEPES pH 7.0, 0.5 mM EDTA and 160 mM Octyl P-D glucopyranoside by vigorous mixing and ultrasonic (IID, Scientz).
(§2) The inhibition activities testing for the compound disclosed herein were carried out at room temperature in assay buffer containing 50 mM HEPES, 10 mM MgCl2, 0.01% BSA, 0.1 mM Na3VO4, 0.005% Tween-20 and 0.01 mM CaCl2. Compounds in DMSO were dispensed into wells of a black 384 well plate (Corning 4514) using D300e digital dispenser (Tecan). […] 3 μL 2× enzyme solution was added to wells. […] After 1 hour reaction, 5 μL ADP-Glo reagent (Promga V9101) was added and incubated for 40 minutes. 10 μL Kinase Detection reagent was added and incubated for 30 minutes. Luminescence was measured on a microplate reader (PHERAstar FSX, BMG labtech). The IC50s are calculated based on inhibition of enzyme activity in the presence of increasing concentrations of compounds.
Human His-TEV-DGK-zeta-pFastBac1 and human baculovirus samples was generated using the Bac-to-Bac baculovirus expression system (Invitrogen) according to the manufacturer's protocol. The DNA used for expression of DGK-zeta, have SEQ ID Nos: 1. Baculovirus amplification was achieved using infected SF9 cells at 1:2000 virus/cells ratios, and grown for 96 hours at 27° C. post-transfected.
The expression scaled up for each protein was carried out in the […] from CORNING. 4 L of 3×10^6 cells/mL Sf9 cells (Expression System, Invitrogen) grown in SF900™ II SFM insect medium (Expression System) was infected with virus stock at 1:200 virus/cells ratio, and grown for 48 hours at 27° C. post-transfection. The infected cell culture was harvested by centrifugation at 6000 rpm for 15 min 4° C. in a SORVALL LYNX6000 centrifuge. The cell pellets were stored at −80° C.
Full length human DGKζ produced as described above, was purified from Sf9 baculovirus-infected insect cell paste. The cells were lysed using sonication method, and the lysates were clarified by centrifugation.

DGKα = DGKα (Homo sapiens (Human), UniProt P23743); assay: Biochemical DGK IC50 assay (ADP-Glo, lipid micelle substrate), DGKα; settings: full length DGKα […], ATP 140 μM, DAG 80 μM; further: full length DGKα 7.5 nM
Protocol: as §1, §2

Chain of DGKα (P23743 whole entry): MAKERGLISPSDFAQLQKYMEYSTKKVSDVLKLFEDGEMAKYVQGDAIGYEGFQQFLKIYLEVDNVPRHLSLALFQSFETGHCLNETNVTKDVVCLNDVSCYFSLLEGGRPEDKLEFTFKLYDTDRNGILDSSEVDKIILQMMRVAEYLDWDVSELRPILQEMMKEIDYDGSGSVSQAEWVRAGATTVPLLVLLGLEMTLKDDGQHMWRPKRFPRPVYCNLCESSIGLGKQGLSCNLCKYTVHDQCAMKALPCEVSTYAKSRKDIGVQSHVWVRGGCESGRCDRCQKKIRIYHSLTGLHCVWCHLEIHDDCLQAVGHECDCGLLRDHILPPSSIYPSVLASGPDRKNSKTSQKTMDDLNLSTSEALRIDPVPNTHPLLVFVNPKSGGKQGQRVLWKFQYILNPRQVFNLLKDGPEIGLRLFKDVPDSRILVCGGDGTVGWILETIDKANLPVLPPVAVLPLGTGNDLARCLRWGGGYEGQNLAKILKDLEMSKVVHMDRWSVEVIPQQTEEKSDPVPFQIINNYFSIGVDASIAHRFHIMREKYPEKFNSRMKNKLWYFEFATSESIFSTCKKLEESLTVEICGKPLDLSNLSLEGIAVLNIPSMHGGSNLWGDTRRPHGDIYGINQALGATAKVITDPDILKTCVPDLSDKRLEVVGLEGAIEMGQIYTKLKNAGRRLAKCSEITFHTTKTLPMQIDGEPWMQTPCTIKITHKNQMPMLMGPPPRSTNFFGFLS
Chain of DGKζ (Q13574 other isoform, or with tags, fused parts or gaps): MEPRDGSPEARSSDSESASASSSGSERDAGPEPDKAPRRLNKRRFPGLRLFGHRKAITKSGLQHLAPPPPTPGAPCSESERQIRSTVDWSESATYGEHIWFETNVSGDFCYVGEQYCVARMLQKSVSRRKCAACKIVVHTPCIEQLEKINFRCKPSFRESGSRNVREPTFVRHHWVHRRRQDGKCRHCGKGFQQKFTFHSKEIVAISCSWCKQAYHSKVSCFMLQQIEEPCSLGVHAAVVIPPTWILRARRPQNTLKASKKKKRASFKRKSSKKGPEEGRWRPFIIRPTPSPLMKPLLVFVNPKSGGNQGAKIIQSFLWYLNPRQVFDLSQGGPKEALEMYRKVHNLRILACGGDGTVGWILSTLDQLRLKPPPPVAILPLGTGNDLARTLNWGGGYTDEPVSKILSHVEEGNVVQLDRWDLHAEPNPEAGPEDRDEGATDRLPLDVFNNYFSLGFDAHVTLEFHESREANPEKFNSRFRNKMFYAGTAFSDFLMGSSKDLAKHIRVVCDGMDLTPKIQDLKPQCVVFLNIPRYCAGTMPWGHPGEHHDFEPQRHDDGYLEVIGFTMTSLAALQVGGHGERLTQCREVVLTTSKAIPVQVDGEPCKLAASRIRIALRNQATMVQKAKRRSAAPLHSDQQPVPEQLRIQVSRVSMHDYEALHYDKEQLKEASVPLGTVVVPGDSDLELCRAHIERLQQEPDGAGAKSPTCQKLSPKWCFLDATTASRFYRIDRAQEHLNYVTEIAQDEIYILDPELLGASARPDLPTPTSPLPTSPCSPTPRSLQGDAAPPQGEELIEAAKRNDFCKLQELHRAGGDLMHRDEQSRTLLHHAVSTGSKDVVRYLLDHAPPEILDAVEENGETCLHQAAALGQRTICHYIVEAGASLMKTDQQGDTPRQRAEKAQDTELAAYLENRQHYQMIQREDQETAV

SMILES	IC50 (DGKζ) [nM]	IC50 (DGKα) [nM]
CC[C@H]1CN(C(C)c2ccc(C3CC3)nc2)[C@H](CC)CN1c1c(F)c(=O)n(C)c2cn(CC#N)nc12 (single isomer, unassigned) [Compound A48b]	108	788
CC[C@H]1CN(C(C)c2ccc(OC(C)C)cn2)[C@H](CC)CN1c1cc(=O)n(C)c2cn(CC#N)nc12 (single isomer, unassigned) [Compound A51b]	1800	337
CC[C@H]1CN(C(C)c2ccc(C)c(C)n2)[C@H](CC)CN1c1cc(=O)n(C)c2cn(CC#N)nc12 (single isomer, unassigned) [Compound A54a]	33	76
CC[C@H]1CN(C(C)c2ccc(C)c(C)n2)[C@H](CC)CN1c1cc(=O)n(C)c2cn(CC#N)nc12 (single isomer, unassigned) [Compound A54b]	1890	1910
CC[C@H]1CN(C(C)c2ccc3c(c2)OCO3)[C@H](CC)CN1c1cc(=O)n(C)c2cn(CC#N)nc12 (single isomer, unassigned) [Compound A68a]	49	97
CC[C@H]1CN(C(C)c2ccc3c(c2)OCO3)[C@H](CC)CN1c1cc(=O)n(C)c2cn(CC#N)nc12 (single isomer, unassigned) [Compound A68b]	2550	1390
CC[C@H]1CN(C(C)c2ccc3c(n2)OCO3)[C@H](CC)CN1c1cc(=O)n(C)c2cn(CC#N)nc12 (single isomer, unassigned) [Compound A75a]	139	74
CC[C@H]1CN(C(C)c2ccc3c(n2)OCO3)[C@H](CC)CN1c1cc(=O)n(C)c2cn(CC#N)nc12 (single isomer, unassigned) [Compound A75b]	5050	1110
CC[C@H]1CN(C(C)c2ccc3ccnn3c2)[C@H](CC)CN1c1cc(=O)n(C)c2cn(CC#N)nc12 (single isomer, unassigned) [Compound A77a]	54	178
CC[C@H]1CN(C(C)c2ccc3ccnn3c2)[C@H](CC)CN1c1cc(=O)n(C)c2cn(CC#N)nc12 (single isomer, unassigned) [Compound A77b]	859	744
CC[C@H]1CN(C(C)c2ccn3ccnc3c2)[C@H](CC)CN1c1cc(=O)n(C)c2cn(CC#N)nc12 (single isomer, unassigned) [Compound A80a]	939	140
CC[C@H]1CN(C(C)c2ccn3ccnc3c2)[C@H](CC)CN1c1cc(=O)n(C)c2cn(CC#N)nc12 (single isomer, unassigned) [Compound A80b]	6900	3040
CC[C@H]1CN(C(C)c2ccc3nccn3c2)[C@H](CC)CN1c1cc(=O)n(C)c2cn(CC#N)nc12 (single isomer, unassigned) [Compound A82a]	486	109
CC[C@H]1CN(C(C)c2ccc3nccn3c2)[C@H](CC)CN1c1cc(=O)n(C)c2cn(CC#N)nc12 (single isomer, unassigned) [Compound A82b]	8520	3050
CC[C@H]1CN(C(C)c2ccc3cncn3c2)[C@H](CC)CN1c1cc(=O)n(C)c2cn(CC#N)nc12 (single isomer, unassigned) [Compound A83a]	8790	648
CC[C@H]1CN(C(C)c2ccc3cncn3c2)[C@H](CC)CN1c1cc(=O)n(C)c2cn(CC#N)nc12 (single isomer, unassigned) [Compound A83b]	1800	90
CC[C@H]1CN(C(C)c2ccc3ncoc3c2)[C@H](CC)CN1c1cc(=O)n(C)c2cn(CC#N)nc12 (single isomer, unassigned) [Compound A84a]	43	68
CC[C@H]1CN(C(C)c2ccc3ncoc3c2)[C@H](CC)CN1c1cc(=O)n(C)c2cn(CC#N)nc12 (single isomer, unassigned) [Compound A84b]	3180	1170
CC[C@@H]1CN(c2cc(=O)n(C)c3cn(CC#N)nc23)[C@@H](C)CN1[C@@H](C)c1ccc2ncoc2c1 (single isomer, unassigned) [Compound A85a]	78	170

SMILES	IC50 (DGKζ) [nM]	IC50 (DGKα) [nM]
CC[C@@H]1CN(c2cc(=O)n(C)c3cn(CC#N)nc23)[C@@H](C)CN1[C@H](C)c1ccc2ncoc2c1 (single isomer, unassigned) [Compound A85b]	3500	2040
CC[C@H]1CN(C(C)c2ccc(NC(C)=O)c(O)c2F)[C@H](CC)CN1c1cc(=O)n(C)c2cn(CC#N)nc12 (single isomer, unassigned) [Compound A87a]	2820	2010
CC[C@H]1CN(C(C)c2ccc(NC(C)=O)c(O)c2F)[C@H](CC)CN1c1cc(=O)n(C)c2cn(CC#N)nc12 (single isomer, unassigned) [Compound A87b]	> 10000	35200
CC[C@@H]1CN(c2cc(=O)n(C)c3cn(CC#N)nc23)[C@@H](C)CN1C(C)c1ccc2ncsc2c1 (single isomer, unassigned) [Compound A92a]	9.1	108
CC[C@@H]1CN(c2cc(=O)n(C)c3cn(CC#N)nc23)[C@@H](C)CN1C(C)c1ccc2ncsc2c1 (single isomer, unassigned) [Compound A92b]	265	1020
CC[C@H]1CN(C(C)c2cnc3ncsc3c2)[C@H](CC)CN1c1cc(=O)n(C)c2cn(CC#N)nc12 (single isomer, unassigned) [Compound A98a]	108	5510
CC[C@H]1CN(C(C)c2cnc3ncsc3c2)[C@H](CC)CN1c1cc(=O)n(C)c2cn(CC#N)nc12 (single isomer, unassigned) [Compound A98b]	2870	9470
CC[C@H]1CN(C(C)c2ccc3ncsc3n2)[C@H](CC)CN1c1cc(=O)n(C)c2cn(CC#N)nc12 (single isomer, unassigned) [Compound A99a]	3520	1740
CC[C@H]1CN(C(C)c2ccc3ncsc3n2)[C@H](CC)CN1c1cc(=O)n(C)c2cn(CC#N)nc12 (single isomer, unassigned) [Compound A99b]	8.6	24
CC[C@@H]1CN(c2cc(=O)n(C)c3cn(CC#N)nc23)[C@@H](C)CN1C(C)c1ccc2ncsc2n1 (single isomer, unassigned) [Compound A100a]	46	85
CC[C@@H]1CN(c2cc(=O)n(C)c3cn(CC#N)nc23)[C@@H](C)CN1C(C)c1ccc2ncsc2n1 (single isomer, unassigned) [Compound A100b]	2610	2890
CC[C@H]1CN(C(C)c2cc(F)c3ncsc3c2)[C@H](CC)CN1c1cc(=O)n(C)c2cn(CC#N)nc12 (single isomer, unassigned) [Compound A101a]	19	2610
CC[C@H]1CN(C(C)c2cc(F)c3ncsc3c2)[C@H](CC)CN1c1cc(=O)n(C)c2cn(CC#N)nc12 (single isomer, unassigned) [Compound A101b]	1240	17700
CC[C@H]1CN(C(C)c2cc3scnc3cc2F)[C@H](CC)CN1c1cc(=O)n(C)c2cn(CC#N)nc12 (single isomer, unassigned) [Compound A103a]	14	92
CC[C@H]1CN(C(C)c2cc3scnc3cc2F)[C@H](CC)CN1c1cc(=O)n(C)c2cn(CC#N)nc12 (single isomer, unassigned) [Compound A103b]	629	1350
CC[C@@H]1CN(c2cc(=O)n(C)c3cn(CC#N)nc23)[C@@H](C)CN1C(C)c1ccc2nc(C)sc2c1F (single isomer, unassigned) [Compound A104a]	6.5	3150
CC[C@@H]1CN(c2cc(=O)n(C)c3cn(CC#N)nc23)[C@@H](C)CN1C(C)c1ccc2nc(C)sc2c1F (single isomer, unassigned) [Compound A104b]	220	18400
CC[C@H]1CN(C(C)c2ccc3nsnc3c2)[C@H](CC)CN1c1cc(=O)n(C)c2cn(CC#N)nc12 (single isomer, unassigned) [Compound A106a]	9	65
CC[C@H]1CN(C(C)c2ccc3nsnc3c2)[C@H](CC)CN1c1cc(=O)n(C)c2cn(CC#N)nc12 (single isomer, unassigned) [Compound A106b]	600	932
